# Laboratory results as given in ChEMBL document CHEMBL1201862, “PubChem BioAssay data set” (2004).
# Calls of active or inactive are those of the source.
# What was measured:
# [1] = Luminescence Cell-Based Dose Response HTS to Identify Activators of Luciferase Translation or Activity in H4 […] Cells. [Related pubchem assays: 1829 (Project Summary), 1814 (Primary HTS)]; type: functional
# [2] = system: H4; experiment: Luminescence Cell-Based Dose Response HTS to Identify Activators of 5'UTR Stem-Loop Driven Prion Protein mRNA Translation in H4 Neuroglioblastoma Cells. [Related pubchem assays: 1829 (Project Summary), 1814 (Primary HTS)]; type: functional; conditions: Homo sapiens
# [3] = system: H9c2; experiment: cells; type: functional, cell-based; conditions: Rattus norvegicus, H9c2, Myocardium;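 note: confirmatory concentration-response retest of ultra-high-throughput screening hits for modulation of myocardial damage; cell death induced by hydrogen peroxide oxidative stress; compound pretreatment for 60 min then peroxide exposure for 2 h; potency is for protecting the cells against peroxide damage rather than for killing them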
# [4] = growth suppression of PTEN-null colon cells, dose response, cell-based, HCT116 PTEN knockout (AID 1047); type: functional;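 note: HCT116 colon tumor cells with PTEN knocked out; cells exposed to compound for 60 hours before readout; potency for loss of cell viability measured by luminescence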
# [5] = growth suppression of beta-catenin-knockout colon cells, dose response, cell-based, HCT116, human colon tumor (AID 1045); type: functional;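 note: HCT116 colon tumor cells with beta catenin knocked out; cells exposed to compound for 60 hours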
# [6] = Luminescence Cell-Based Dose Retest to Confirm Inhibitors of Cancer Stem Cells. [Related pubchem assays (depositor defined):AID2717, AID2721]; type: functional; conditions: Homo sapiens
# [7] = NIH-3T3 fibroblast cytotoxicity, dose response, cytotoxicity control, cell-based, fluorescence, Alamar Blue, secondary assay (AID 2327); type: functional;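 note: NIH-3T3 mouse fibroblasts cultured with fluconazole at 8 µg/mL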
# [8] = C. albicans growth with fluconazole, confirmation, fluorescence, retest (AID 2467); type: functional, cell-based
# [9] = molecular target: T1, Protein skinhead-1 (Caenorhabditis elegans, UniProt P34707); type: functional
# T1 sequence (P34707 whole entry): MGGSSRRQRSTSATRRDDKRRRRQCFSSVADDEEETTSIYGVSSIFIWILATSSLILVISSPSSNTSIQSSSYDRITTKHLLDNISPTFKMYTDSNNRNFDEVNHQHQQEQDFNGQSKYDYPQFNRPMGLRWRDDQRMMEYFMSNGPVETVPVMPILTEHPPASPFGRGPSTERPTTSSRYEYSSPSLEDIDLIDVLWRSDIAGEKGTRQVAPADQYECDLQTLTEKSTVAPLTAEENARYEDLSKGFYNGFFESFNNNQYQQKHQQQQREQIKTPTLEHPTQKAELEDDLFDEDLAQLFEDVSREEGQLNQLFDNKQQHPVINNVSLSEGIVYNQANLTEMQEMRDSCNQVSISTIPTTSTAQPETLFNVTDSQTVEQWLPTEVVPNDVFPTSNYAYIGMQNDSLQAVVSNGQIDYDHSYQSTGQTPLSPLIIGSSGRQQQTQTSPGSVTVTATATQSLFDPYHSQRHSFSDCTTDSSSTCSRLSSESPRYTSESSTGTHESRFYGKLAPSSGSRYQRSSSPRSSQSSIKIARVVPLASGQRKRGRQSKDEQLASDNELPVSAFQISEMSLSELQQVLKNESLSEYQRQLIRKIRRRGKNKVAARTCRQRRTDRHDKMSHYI
# [10] = inhibitors of intracellular T. cruzi replication, confirmation, NIH3T3 host cells, beta-gal luminescence (AID 2044); type: functional, cell-based;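 note: intracellular parasites grown in NIH/3T3 mouse fibroblasts as host cells; luminescent beta-galactosidase reporter signal from transgenic T. cruzi replicating inside host cells; inhibitors lower the luminescence signal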
# [11] = cytotoxicity toward NIH3T3 fibroblasts, dose response, counter-screen, cell-based, ATP luminescence, mouse fibroblasts (AID 2010); type: functional;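 note: cells exposed to compound for about 90 hours before reading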
# [12] = molecular target: T2, Cytochrome P450 1A2 (Homo sapiens, UniProt P05177);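 note: PubChem cytochrome P450 panel assay, CYP1A2 panel member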
# T2 sequence (P05177 whole entry): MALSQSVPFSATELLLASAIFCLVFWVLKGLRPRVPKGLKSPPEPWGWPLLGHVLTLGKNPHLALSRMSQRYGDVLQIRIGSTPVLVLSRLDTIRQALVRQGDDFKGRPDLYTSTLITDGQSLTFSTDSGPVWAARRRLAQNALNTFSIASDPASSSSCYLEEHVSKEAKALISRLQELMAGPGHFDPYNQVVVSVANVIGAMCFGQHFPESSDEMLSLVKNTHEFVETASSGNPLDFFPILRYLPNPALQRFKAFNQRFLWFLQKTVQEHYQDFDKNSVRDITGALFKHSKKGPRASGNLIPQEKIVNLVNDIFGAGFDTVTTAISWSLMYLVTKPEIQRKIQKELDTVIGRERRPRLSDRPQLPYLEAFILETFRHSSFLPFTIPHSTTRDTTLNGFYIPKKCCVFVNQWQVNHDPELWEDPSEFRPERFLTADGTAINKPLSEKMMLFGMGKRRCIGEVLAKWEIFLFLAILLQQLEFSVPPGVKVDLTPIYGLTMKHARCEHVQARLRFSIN
# [13] = molecular target: Cytochrome P450 3A4 (Homo sapiens, UniProt P08684);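 note: CYP3A4 tested as one member of a cytochrome P450 panel screen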
# [14] = molecular target: Cytochrome P450 2D6 (Homo sapiens, UniProt P10635);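 note: CYP2D6 member of a cytochrome P450 panel assay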
# [15] = molecular target: T3, RNA-binding protein pos-1 (Caenorhabditis elegans, UniProt G5EF15); experiment: inhibitors of POS-1/mex-3 RNA binding, dose response, biochemical, fluorescence polarization (AID 1964);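 note: purified POS-1 fused to maltose binding protein made in E. coli; potency of compounds blocking POS-1 binding to fluorescent RNA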
# T3 sequence (G5EF15 whole entry): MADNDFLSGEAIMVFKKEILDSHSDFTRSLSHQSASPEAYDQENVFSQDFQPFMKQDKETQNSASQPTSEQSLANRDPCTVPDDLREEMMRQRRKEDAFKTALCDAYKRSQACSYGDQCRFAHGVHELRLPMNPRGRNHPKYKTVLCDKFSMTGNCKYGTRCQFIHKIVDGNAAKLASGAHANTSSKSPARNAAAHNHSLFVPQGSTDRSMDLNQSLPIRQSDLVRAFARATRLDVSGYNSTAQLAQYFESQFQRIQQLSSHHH
# [16] = molecular target: T4, Zinc finger protein mex-5 (Caenorhabditis elegans, UniProt Q9XUB2); experiment: MEX-5/TCR-2 RNA interaction inhibitors, dose response, biochemical, C. elegans, fluorescence polarization (AID 1960)
# T4 sequence (Q9XUB2 whole entry): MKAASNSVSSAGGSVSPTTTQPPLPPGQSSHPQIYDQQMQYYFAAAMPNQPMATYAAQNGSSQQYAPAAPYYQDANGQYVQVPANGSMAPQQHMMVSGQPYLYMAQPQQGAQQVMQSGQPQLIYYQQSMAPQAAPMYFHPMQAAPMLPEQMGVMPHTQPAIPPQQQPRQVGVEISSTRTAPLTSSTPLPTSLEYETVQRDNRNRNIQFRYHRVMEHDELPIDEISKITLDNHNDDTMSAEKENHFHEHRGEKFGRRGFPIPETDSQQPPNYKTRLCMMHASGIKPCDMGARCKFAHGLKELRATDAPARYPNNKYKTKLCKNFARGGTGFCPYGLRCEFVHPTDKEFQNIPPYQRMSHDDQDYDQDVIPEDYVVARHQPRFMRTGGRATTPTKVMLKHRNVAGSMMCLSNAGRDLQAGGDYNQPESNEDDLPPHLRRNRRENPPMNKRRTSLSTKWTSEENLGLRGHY
# [17] = system: INS1; experiment: beta cell apoptosis inhibitors, cytokine rescue, dose response, luminescence, retest (AID 449756); type: functional, cell-based; conditions: Rattus norvegicus;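 note: cell death triggered by IL-1 beta plus TNF-alpha plus IFN-gamma mixture; protective hits raise ATP signal compared with cytokine alone wells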
# [18] = inhibitors of clade B AD8 Env fusion, dose response, cell-based, cherry-pick (AID 652062); type: functional;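 note: luciferase signal from cell-cell fusion driven by HIV-1 clade B AD8 Env; potency is for inhibitors of fusion seen as a drop in luminescence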
# [19] = molecular target: Cytochrome P450 2C9 (Homo sapiens, UniProt P11712)
# Sequence of Cytochrome P450 2C9 (P11712 whole entry): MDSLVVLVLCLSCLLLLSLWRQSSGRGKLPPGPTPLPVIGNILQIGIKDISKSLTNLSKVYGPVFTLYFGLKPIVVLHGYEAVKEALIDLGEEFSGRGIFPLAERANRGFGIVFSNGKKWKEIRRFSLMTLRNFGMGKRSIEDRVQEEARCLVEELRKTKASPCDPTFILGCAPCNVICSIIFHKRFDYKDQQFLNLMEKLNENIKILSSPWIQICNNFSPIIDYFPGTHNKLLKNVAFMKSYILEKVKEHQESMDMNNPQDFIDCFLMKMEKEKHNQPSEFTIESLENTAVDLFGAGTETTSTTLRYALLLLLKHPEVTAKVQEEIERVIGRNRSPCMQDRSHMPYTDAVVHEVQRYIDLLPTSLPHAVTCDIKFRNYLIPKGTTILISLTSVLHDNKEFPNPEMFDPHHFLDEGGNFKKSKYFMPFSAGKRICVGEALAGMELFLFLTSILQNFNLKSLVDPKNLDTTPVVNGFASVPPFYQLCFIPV
# Sequence of Cytochrome P450 3A4 (P08684 whole entry): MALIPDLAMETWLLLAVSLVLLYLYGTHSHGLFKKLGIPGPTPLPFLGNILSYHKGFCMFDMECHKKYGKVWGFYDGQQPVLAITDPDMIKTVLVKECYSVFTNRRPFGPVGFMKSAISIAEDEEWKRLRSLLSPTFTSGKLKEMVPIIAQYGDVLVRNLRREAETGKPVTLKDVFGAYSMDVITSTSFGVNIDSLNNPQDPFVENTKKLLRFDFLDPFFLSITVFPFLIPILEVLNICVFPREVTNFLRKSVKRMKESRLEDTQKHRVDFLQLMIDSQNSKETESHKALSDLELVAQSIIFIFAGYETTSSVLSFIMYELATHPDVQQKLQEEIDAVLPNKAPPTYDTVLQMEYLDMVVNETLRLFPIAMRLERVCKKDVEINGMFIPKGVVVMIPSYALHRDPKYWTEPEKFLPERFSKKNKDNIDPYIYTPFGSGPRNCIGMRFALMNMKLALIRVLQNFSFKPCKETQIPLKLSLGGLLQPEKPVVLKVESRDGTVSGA
# Sequence of Cytochrome P450 2D6 (P10635 whole entry, the tested form may be a part): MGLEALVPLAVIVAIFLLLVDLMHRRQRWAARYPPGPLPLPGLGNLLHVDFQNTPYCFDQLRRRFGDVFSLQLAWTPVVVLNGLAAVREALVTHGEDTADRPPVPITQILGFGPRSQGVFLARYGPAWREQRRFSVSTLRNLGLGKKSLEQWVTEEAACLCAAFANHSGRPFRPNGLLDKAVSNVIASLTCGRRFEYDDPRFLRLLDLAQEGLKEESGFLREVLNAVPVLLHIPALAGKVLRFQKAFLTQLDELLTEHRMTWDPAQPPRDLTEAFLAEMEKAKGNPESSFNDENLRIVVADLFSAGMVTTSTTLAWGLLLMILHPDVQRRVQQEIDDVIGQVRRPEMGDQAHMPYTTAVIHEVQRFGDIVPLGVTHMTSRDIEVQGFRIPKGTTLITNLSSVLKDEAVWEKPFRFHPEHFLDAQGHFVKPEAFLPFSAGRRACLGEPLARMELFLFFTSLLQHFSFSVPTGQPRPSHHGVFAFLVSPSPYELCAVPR
smiles,measurement,setting,value
c1ccc(CSc2nnc(-c3c[nH]c4ccccc34)o2)cc1,EC50,[1],28.7 µM (active)
same,EC50,[2],70.2 µM (active)
COc1ccccc1OCC(=O)Nc1cccc(-c2nnc(-c3ccco3)o2)c1,IC50,[3],> 79 µM (inactive)
COc1ccc(-c2csc(NC(=S)NC(=O)/C=C/c3ccco3)n2)cc1OC,EC50,[4],1.62 µM (active)
same,EC50,[5],3.11 µM (active)
same,AC50,[6],853 nM (active)
COC(=O)/C(=C\c1ccc([N+](=O)[O-])o1)NC(=O)c1ccccc1,EC50,[7],> 160 µM (inactive)
same,EC50,[8],0.53 µM (active)
Cc1ccc(-c2csc(NC(=O)Cn3[nH]c(=O)c4ccccc4c3=O)n2)cc1,IC50,[3],> 79 µM (inactive)
Cc1nn2c(-c3cccc(NC(=O)c4ccco4)c3)nnc2c2ccccc12,IC50,[3],> 79 µM (inactive)
COc1cc(SC)ccc1C(=O)Nc1nccs1,IC50,[9],53.6 µM (inactive)
O=C(Nc1cc2c3c(c1)C1CCCC1CN3CC1CCCC21)c1ccccc1 (configuration not stated),EC50,[7],> 160 µM (inactive)
same,EC50,[10],780 nM (active)
same,EC50,[11],> 60 µM (not active)
O=C(NC12CC3CC(CC(C3)C1)C2)N1CCN(c2nc(-c3ccccc3)cs2)CC1,AC50,[12],6.31 µM (inconclusive)
same,AC50,[13],11.2 µM (inconclusive)
CC(C)C(CCNCc1ccccn1)c1ccc(Cl)cc1 (configuration not stated),IC50,[9],> 100 µM (inactive)
CCOC(=O)c1cnc(Nc2nc3ccccc3o2)nc1CSc1nnc(C)s1,IC50,[3],13.4 µM (active)
O=C(Nc1csc(Cl)c1)c1ccccc1,IC50,[9],> 100 µM (inactive)
Cc1ccc(OCc2ccc(C(=O)Nc3nccs3)o2)cc1C,IC50,[9],> 100 µM (inactive)
same,AC50,[14],15.8 µM (inconclusive)
COc1ccc(C2C(C(=O)N3CCOCC3)CCC(=O)N2c2ccc(OC)cc2)cc1 (configuration not stated),AC50,[12],0.0631 µM (inconclusive)
same,AC50,[13],17.8 µM (inconclusive)
COC(=O)C1(CC(C)C)C=C2C(=C(c3ccccc3)C(=O)C2C)CN1 (configuration not stated),AC50,[12],15.8 µM (inconclusive)
same,AC50,[13],25.1 µM (inconclusive)
COc1ccc(CNc2nc(-c3ccc(N(C)C)cc3)nc3ccccc23)c(OC)c1,AC50,[14],25.1 µM (inconclusive)
same,AC50,[13],5.01 µM (inconclusive)
Cc1ccc2[nH]c(C)c(/C=C3/C(=N)N4N=C(CC(=O)N5CCOCC5)SC4=NC3=O)c2c1,EC50,[15],38.3 µM (active)
same,EC50,[16],> 300 µM (inconclusive)
same,IC50,[9],> 100 µM (inactive)
O=S(=O)(Nc1nc2ccccc2s1)c1ccc(Br)s1,EC50,[7],> 150 µM (inactive)
same,EC50,[8],1.94 µM (active)
Cn1cccc1C(=O)N1CCC2(CCCN(C(=O)Nc3cccc(F)c3)C2)CC1,AC50,[13],10 µM (inconclusive)
COC(=O)Sc1nc(N2CCOCC2)c2c(c1C#N)CC(C)(C)OC2,IC50,[3],38.6 µM (inactive)
Clc1ccc(-c2cn3cc(Br)ccc3n2)cc1Cl,IC50,[9],> 100 µM (inactive)
COc1ccc(CCNC(=O)c2c(O)c3ccccc3n(C)c2=O)cc1,EC50,[7],72.2 µM (active)
same,EC50,[8],> 38 µM (not active)
CC(C)c1ccc(C(=O)Nc2ccc(CN3CCOCC3)cc2)cc1,IC50,[9],3.18 µM (active)
O=C(c1cc(COc2cccc(C(F)(F)F)c2)on1)N1CCC(c2ccncc2)CC1,EC50,[7],> 150 µM (inactive)
same,EC50,[8],> 38 µM (not active)
same,AC50,[17],5.33 µM (active)
same,AC50,[18],6.22 µM (active)
CC1=CC(=O)N(c2cccc(C(F)(F)F)c2)C1c1ccc(Cl)cc1 (configuration not stated),AC50,[12],14.1 µM (inconclusive)
same,AC50,[13],10 µM (inconclusive)
CN(C)Cc1ccccc1-c1cncnc1NCc1cccs1,AC50,[13],1.26 µM (inconclusive)
CCCCCOC(=O)CSc1nnc(-c2ccccc2)c(O)n1,AC50,[13],22.4 µM (inconclusive)
COc1c(C(=O)Nc2nccs2)ccc2ccccc12,IC50,[9],17.1 µM (active)
Cc1noc(C)c1S(=O)(=O)N1CCCC(C(=O)NCCc2ccc(Cl)cc2)C1 (configuration not stated),IC50,[9],> 100 µM (inactive)
CN(C)C(CNC(=O)CCc1nc2cc(Cl)ccc2n(Cc2ccccc2)c1=O)c1ccccc1 (configuration not stated),IC50,[9],58.1 µM (inactive)
CCn1ncc(C2=NOC(C(=O)Nc3ccc(C)cc3)C2)c1C (configuration not stated),AC50,[18],32.8 µM (active)
O=C1c2ccccc2NC(c2ccc3c(c2)OCO3)N1O (configuration not stated),AC50,[14],14.1 µM (inconclusive)
same,AC50,[13],22.4 µM (inconclusive)
same,AC50,[19],14.1 µM (inconclusive)
O=C1CCC(C(=O)OCC(=O)N2N=C3/C(=C\c4ccccc4)CCCC3C2c2ccccc2)N1 (configuration not stated),IC50,[9],> 100 µM (inactive)
CCc1nc2c(OCc3ccc(C(F)(F)F)cc3)cccn2c1N(C)C(=O)c1ccncc1,IC50,[9],4.62 µM (active)
O=[N+]([O-])c1ccc(COc2ccc(CN3CCCC3)cc2)cc1,IC50,[9],3.75 µM (active)
COc1ccc(NC(=O)N(C)[C@H]2C[C@H]3c4[nH]c5ccc(-c6ccc7c(c6)OCO7)cc5c4CCN3C[C@H]2[C@H](C)O)cc1,IC50,[3],> 79 µM (inactive)
O=C(COc1ccccc1F)N/N=C1\CCCc2ccccc21,EC50,[1],24.8 µM (active)
same,EC50,[2],53.3 µM (inconclusive)
Cc1[nH]c2ccccc2c1/C=C/c1cc[n+](C)cc1,EC50,[7],120 µM (inconclusive)
same,EC50,[8],> 38 µM (not active)
same,AC50,[14],17.8 µM (inconclusive)
